Legend:
[1] = target: T1, human clusterin (recombinant monomeric clusterin) (Homo sapiens, UniProt P10909); test: BIAcore kinetic analysis of antibody binding to immobilized clusterin
T1 construct: Recombinant monomeric clusterin was immobilized on a CM3 chip with normal amine coupling method
Method: The purpose of these investigations is to determine the kinetics parameters of anti-clusterin antibodies. In particular, to determine whether the humanization of the 16B5 and 21B12 anti-clusterin monoclonal antibody affects the kinetics parameters of its binding to human clusterin. To this end, a kinetic analysis method was developed using the BIAcore 3000. Human clusterin was immobilized on a sensor chip. Full length antibodies or Fab fragments were injected and allowed to interact with the immobilized clusterin. This example described the exemplary antibody 16B5 but the 21B12 exemplary antibody was prepared and tested in a similar manner.
HBST (10 mM Hepes pH 7.4, 135 mM NaCl, 3.4 mM EDTA, 0.005% Tween 20) was used as running buffer for all BIAcore experiments. Recombinant monomeric clusterin was immobilized on a CM3 chip with normal amine coupling method at a flow of 5 μl/min. Surface was activated with 35 μl of a mixture of 50 mM NHS/0.2M EDC. Clusterin in 10 mM Na-acetate pH 4.5 was injected until a desired amount was captured (below 60RU). Unreacted esters were deactivated with 35 μL1 of 1M ethanolamine hydrochloride-NaOH pH8.5. A control surface was prepared by injecting NHS/EDC and ethanolamine in the same manner.
Kinetics analysis was conducted at a flow of 50 μl/min. Full length antibodies (mouse or humanized) or Fab were diluted in HBST. Concentration range was from 1.953-31.25 nM for the full length antibodies and 15.625-250 nM for the Fab. Each concentration was injected over the clusterin and a control surface for 5 min followed with a 5 min dissociation wash. The clusterin surface was regenerated between each antibody injection with 50 μl of 20 mM HCl.

DU145 cells = test: growth in Matrigel, DU145; format: cell-based, human; conditions: 8 μg/mL, up to 3 weeks
Method: FIG. 5. Inhibition of h16B5 reduces the invasiveness of human prostate cancer cells. The bottom of 12-well plates was covered with 200 μL Growth factor reduced matrigel (Becton Dickinson). Cells (2.5×10^4) were resuspended in 200 μL matrigel, which was layered on top of this, and finally 500 μL of cell specific growth medium was added on top of the matrigel. h16B5 was added to every layer of matrigel as well as the medium in a concentration of 8 μg/mL. Plates were incubated at 37° C. for up to 3 weeks during which the growth medium (+/−h16B5) was replenished weekly. The arrows indicate the areas of epithelial-like cells.
We then determined whether other cell lines such as the human prostate PC3 and DU145 cell lines, which secrete various levels of endogenous clusterin, could be affected in their invasive behavior and growth by the h16B5.

PANC-1 cells = test: Transwell Matrigel migration of TGFβ-stimulated pancreatic cancer cells; format: cell-based, human; conditions: 24 h incubation
Method: FIG. 12. H16B5 inhibits the migration of pancreatic cancer cell lines. PANC-1 cells were seeded in serum-free medium in the upper chamber of a 24-well Transwell plate containing a Matrigel barrier. The lower wells were filled with medium containing 10% FBS as a chemo-attractant. After a 24 h incubation in the presence or absence of TGFβ and/or h16B5 (as indicated), the number of cells in the Matrigel layer were stained and counted.
(§1) Tumors derived from 4 different human pancreatic cell lines were obtained which were fixed in formalin, embedded in paraffin, and section on glass slides. Immunohistochemistry was conducted with h16B5 antibody to determine if tumors derived from this cancer indication expressed clusterin. The tumors were derived from Aspc-1, BxPC-3, PANC-1, and MiaPaCa-2 all of which were derived from pancreatic cancer patients (ATCC, Manassas, Va.). Paraffin-embedded epithelial pancreatic tumor samples were placed on glass slides and fixed for 15 min at 50° C. Deparaffinization was conducted by treating 2× with xylene followed by dehydration in successive 5 min washes in 100%, 80%, and 70% ethanol. The slides were washed 2× in PBS for 5 min and treated with antigen retrieval solution (citrate-EDTA) to unmask the antigen. […] H16B5-reactive clusterin was detected by incubating with biotin-conjugated human anti-kappa followed by streptavidin-HRP tertiary antibody. […]

[2] = test system: PC-3 prostate cancer cells; test: PC-3 prostate tumor xenograft; format: in vivo, SCID mice
Method: PC-3 prostate cancer cells (2×10^6) were implanted s.c. into SCID mice and allowed to grow until the tumor sizes were approximately 100 mm^3. Tumors were measured bi-weekly with a digital caliper and tumor volumes were calculated as L×W×H. Each group contained 8 animals that were randomized prior to the beginning off the treatments. The results were expressed as mm^3±SEM.
A second prostate cancer model study was conducted in a different tumor model by implanting PC-3 prostate cancer cells. PC-3 cells are also hormone-insensitive but are documented as being slightly more invasive than the DU145 cells. As was described above, the cells were implanted sub-cutaneously in SCID mice and treatments were initiated when the tumors reached a volume of approximately 100 mm^3 (designated day 1). The h16B5 injections were administered i.p. on day 1 at 5 mg/kg and continued twice per week thereafter whereas a single TxT injection at 10 mg/kg was administered i.p. on day 5.

clusterin = target: T2, clusterin (Homo sapiens, UniProt P10909); test: immunohistochemistry on tumors derived from human pancreatic cancer cell lines; format: binding; conditions: 5 μg/ml, 1 h at room temperature
T2 construct: from tissue; host or cells: formalin-fixed, paraffin-embedded xenograft tumours of Aspc-1, BxPC-3, PANC-1 and MiaPaCa-2 cells grown in SCID mice
T2 sequence (P10909 23-449): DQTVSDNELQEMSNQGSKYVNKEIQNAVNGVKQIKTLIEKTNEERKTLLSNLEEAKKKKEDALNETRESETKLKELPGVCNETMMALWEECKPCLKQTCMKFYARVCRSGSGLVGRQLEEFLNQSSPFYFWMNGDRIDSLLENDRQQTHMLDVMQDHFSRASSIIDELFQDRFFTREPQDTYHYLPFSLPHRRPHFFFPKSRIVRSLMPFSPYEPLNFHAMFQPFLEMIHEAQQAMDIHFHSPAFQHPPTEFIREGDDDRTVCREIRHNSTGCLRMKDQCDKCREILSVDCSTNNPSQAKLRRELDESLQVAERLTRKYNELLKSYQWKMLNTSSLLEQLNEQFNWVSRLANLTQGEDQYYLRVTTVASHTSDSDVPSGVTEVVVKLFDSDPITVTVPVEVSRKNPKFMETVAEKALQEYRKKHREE
Method: FIG. 11. Clusterin is expressed in human pancreatic tumors. Tumors derived from pancreatic cancer cell lines (as indicated) were grown in SCID mice, harvested, fixed in formalin, sections and examined using immunohistochemistry with h16B5. Positive staining was visualized by standard methods using a HRP-conjugated secondary antibody. The negative control was performed under identical conditions with an isotype control antibody.
as §1

T1 sequence (P10909 23-449): as above

With “h16B5: humanized anti-clusterin IgG2 antibody, heavy chain SEQ ID NO.:9 and light chain SEQ ID NO.:10” the “kinetics parameters compared with the parent mouse antibody” value ([1]; full length vs full length, Fab vs Fab) was “very similar”, the “KD of the interaction with immobilized human clusterin” value ([1]; stated in words) was “low nM range” and the “sphere-like structures in Matrigel” value (DU145 cells) was “smaller and fewer in number”. For the same substance, the “migration of TGFβ-stimulated cells into the Matrigel” value (PANC-1 cells) was “severely inhibited”, the “increase in overall survival” value ([2]; 5 mg/kg i.p. twice per week) was 47% and the mice remaining alive ([2]; day 43 (no remaining animals in the control group)) was “greater than 60%”. For the same substance, the “reduction in average tumor size compared to the control group” value ([2]; day 43, 5 mg/kg i.p. twice per week) was 37%, the “survival of the animals” value ([2]; h16B5 in combination with TxT) was “extended the survival” and the “staining for clusterin expression in Aspc-1, BxPC-3, PANC-1 and MiaPaCa-2 derived tumors” value (clusterin) was “stained positive”.

From patent publication US8802826B2, “Anti-clusterin antibodies and antigen binding fragments and their use to reduce tumor volume” (Alethia Biotherapeutics Inc., priority 2009, dated 2014)
